Values after ≈ are worked out from the molar mass of the structure shown.
Experiments:
[1] = target: Voltage-gated inwardly rectifying potassium channel KCNH2 (Homo sapiens, UniProt Q12809); assay: Inhibition of human ERG expressed in CHO cells in at -80 mV holding potential by automated Qpatch clamp assay; format: cell-based
Staphylococcus aureus [2] = assay: Antibacterial activity against methicillin-sensitive Staphylococcus aureus after 18 to 20 hrs by CLSI-protocol based broth microdilution method; format: functional; conditions: Staphylococcus aureus; read-out: MIC
[3] = system: Staphylococcus epidermidis; assay: Antibacterial activity against methicillin-sensitive Staphylococcus epidermidis after 18 to 20 hrs by CLSI-protocol based broth microdilution method; format: functional
Neisseria gonorrhoeae = assay: Antibacterial activity against Neisseria gonorrhoeae after 18 to 20 hrs by CLSI-protocol based agar microdilution method; format: functional
Streptococcus pyogenes = assay: Antibacterial activity against Streptococcus pyogenes after 18 to 20 hrs by CLSI-protocol based broth microdilution method; format: functional; conditions: Streptococcus pyogenes; read-out: MIC
Staphylococcus aureus [4] = assay: Antibacterial activity against methicillin-resistant Staphylococcus aureus after 18 to 20 hrs by CLSI-protocol based broth microdilution method; format: functional
[5] = system: Staphylococcus epidermidis; assay: Antibacterial activity against methicillin-resistant Staphylococcus epidermidis after 18 to 20 hrs by CLSI-protocol based broth microdilution method; format: functional
Streptococcus pneumoniae = assay: Antibacterial activity against penicillin-resistant Streptococcus pneumoniae after 18 to 20 hrs by CLSI-protocol based broth microdilution method; format: functional
Staphylococcus aureus [6] = assay: Antibacterial activity against methicillin-resistant Staphylococcus aureus infected in Kunming mouse dosed subcutaneously at 0.5 and 4.0 hrs postinfection and measured at 7 to 14 days post treatment by Bliss method; format: functional; conditions: sc
Staphylococcus aureus [7] = assay: Antibacterial activity against methicillin-sensitive Staphylococcus aureus infected in Kunming mouse dosed subcutaneously at 0.5 and 4.0 hrs postinfection and measured at 7 to 14 days post treatment by Bliss method; format: functional; conditions: sc
[8] = target: DNA topoisomerase 2-alpha (Homo sapiens, UniProt P11388); assay: Inhibition of human topoisomerase-2alpha using catenated DNA as substrate after 30 mins by ethidium bromide-based gel electrophoresis
Sequence of DNA topoisomerase 2-alpha (P11388 whole entry): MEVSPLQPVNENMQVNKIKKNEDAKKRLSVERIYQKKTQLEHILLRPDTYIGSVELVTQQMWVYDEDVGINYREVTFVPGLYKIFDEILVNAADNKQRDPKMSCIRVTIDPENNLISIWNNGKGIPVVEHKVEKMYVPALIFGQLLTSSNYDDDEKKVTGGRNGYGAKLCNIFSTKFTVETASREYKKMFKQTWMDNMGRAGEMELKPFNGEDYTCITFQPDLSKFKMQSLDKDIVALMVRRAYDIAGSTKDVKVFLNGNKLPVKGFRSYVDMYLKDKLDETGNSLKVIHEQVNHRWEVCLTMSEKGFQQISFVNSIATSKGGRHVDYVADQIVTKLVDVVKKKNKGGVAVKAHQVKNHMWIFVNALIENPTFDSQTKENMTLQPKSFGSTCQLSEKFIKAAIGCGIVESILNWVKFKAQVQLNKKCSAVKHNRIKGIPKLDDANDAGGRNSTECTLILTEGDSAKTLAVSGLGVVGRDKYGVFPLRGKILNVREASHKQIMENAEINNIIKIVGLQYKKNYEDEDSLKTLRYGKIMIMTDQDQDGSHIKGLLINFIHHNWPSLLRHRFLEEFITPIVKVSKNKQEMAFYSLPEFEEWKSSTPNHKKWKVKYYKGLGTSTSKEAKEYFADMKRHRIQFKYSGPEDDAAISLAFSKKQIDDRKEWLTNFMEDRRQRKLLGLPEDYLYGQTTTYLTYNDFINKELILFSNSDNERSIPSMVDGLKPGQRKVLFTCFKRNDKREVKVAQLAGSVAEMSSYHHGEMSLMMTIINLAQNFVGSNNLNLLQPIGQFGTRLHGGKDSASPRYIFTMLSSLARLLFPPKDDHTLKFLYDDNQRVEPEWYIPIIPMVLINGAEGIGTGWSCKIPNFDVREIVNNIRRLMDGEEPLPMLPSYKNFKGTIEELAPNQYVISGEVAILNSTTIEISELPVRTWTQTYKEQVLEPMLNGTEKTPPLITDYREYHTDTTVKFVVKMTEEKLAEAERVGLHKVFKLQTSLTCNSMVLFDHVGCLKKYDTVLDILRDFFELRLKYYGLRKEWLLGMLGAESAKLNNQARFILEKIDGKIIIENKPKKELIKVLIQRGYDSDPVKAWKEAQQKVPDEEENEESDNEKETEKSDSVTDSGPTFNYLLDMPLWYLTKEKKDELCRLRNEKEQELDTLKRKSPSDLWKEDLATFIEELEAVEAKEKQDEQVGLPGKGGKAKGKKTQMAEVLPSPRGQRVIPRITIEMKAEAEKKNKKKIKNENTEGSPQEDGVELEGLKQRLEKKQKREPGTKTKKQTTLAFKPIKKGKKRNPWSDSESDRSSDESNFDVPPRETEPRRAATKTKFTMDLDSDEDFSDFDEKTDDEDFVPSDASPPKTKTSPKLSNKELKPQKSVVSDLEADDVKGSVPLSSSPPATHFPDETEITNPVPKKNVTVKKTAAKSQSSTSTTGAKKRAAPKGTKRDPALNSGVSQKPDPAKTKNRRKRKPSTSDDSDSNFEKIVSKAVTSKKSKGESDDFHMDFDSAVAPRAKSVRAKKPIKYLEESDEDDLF

DNA gyrase = DNA gyrase (Staphylococcus aureus, UniProt P0A0K8+P20831)
Sequence of DNA gyrase (P0A0K8 whole entry): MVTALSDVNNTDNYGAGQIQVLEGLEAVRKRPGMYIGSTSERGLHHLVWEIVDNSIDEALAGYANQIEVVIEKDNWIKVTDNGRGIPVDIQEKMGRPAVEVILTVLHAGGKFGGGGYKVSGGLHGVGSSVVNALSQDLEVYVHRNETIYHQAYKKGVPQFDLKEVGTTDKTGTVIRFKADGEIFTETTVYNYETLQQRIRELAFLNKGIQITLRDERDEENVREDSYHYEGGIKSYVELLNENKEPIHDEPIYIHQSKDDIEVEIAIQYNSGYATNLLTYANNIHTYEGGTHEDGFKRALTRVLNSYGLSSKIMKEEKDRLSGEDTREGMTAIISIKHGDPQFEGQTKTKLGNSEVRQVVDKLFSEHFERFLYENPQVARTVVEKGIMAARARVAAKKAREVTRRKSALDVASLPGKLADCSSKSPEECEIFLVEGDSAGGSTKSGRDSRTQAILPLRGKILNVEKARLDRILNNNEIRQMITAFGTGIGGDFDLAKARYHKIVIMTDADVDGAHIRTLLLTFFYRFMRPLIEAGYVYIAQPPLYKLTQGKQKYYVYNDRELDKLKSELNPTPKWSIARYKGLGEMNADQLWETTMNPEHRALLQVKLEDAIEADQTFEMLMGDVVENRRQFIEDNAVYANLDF
Sequence of DNA gyrase (P20831 whole entry): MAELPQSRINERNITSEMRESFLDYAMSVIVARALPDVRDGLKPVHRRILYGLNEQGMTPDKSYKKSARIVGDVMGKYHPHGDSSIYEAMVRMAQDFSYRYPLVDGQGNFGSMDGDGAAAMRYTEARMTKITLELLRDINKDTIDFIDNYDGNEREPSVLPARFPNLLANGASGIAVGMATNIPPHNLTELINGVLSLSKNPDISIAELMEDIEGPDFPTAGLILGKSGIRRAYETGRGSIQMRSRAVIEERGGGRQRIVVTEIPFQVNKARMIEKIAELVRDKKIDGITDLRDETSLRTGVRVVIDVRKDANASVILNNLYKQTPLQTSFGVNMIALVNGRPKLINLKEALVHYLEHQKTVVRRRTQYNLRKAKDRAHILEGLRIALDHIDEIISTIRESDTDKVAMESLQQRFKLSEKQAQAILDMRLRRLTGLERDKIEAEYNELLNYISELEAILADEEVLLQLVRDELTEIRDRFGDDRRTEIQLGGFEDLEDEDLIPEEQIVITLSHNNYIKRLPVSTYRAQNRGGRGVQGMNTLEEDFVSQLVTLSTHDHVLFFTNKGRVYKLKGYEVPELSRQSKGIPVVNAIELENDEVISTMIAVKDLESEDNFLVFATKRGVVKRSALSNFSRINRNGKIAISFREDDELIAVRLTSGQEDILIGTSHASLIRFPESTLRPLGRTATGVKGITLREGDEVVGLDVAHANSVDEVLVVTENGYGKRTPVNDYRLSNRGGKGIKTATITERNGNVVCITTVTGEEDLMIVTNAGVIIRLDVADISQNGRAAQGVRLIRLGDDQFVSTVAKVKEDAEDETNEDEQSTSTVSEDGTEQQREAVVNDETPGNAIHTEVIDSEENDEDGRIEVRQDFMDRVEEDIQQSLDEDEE
Description: Inhibition of Staphylococcus aureus DNA gyrase supercoiling activity using relaxed pHOT-1 DNA as substrate after 60 mins by ethidium bromide-based gel electrophoresis

[9] = Tmax in CD1 mouse at 10 mg/kg, po by LC-MS/MS analysis; format: ADME, organism-based; conditions: in vivo

Sequence of Voltage-gated inwardly rectifying potassium channel KCNH2 (Q12809 whole entry): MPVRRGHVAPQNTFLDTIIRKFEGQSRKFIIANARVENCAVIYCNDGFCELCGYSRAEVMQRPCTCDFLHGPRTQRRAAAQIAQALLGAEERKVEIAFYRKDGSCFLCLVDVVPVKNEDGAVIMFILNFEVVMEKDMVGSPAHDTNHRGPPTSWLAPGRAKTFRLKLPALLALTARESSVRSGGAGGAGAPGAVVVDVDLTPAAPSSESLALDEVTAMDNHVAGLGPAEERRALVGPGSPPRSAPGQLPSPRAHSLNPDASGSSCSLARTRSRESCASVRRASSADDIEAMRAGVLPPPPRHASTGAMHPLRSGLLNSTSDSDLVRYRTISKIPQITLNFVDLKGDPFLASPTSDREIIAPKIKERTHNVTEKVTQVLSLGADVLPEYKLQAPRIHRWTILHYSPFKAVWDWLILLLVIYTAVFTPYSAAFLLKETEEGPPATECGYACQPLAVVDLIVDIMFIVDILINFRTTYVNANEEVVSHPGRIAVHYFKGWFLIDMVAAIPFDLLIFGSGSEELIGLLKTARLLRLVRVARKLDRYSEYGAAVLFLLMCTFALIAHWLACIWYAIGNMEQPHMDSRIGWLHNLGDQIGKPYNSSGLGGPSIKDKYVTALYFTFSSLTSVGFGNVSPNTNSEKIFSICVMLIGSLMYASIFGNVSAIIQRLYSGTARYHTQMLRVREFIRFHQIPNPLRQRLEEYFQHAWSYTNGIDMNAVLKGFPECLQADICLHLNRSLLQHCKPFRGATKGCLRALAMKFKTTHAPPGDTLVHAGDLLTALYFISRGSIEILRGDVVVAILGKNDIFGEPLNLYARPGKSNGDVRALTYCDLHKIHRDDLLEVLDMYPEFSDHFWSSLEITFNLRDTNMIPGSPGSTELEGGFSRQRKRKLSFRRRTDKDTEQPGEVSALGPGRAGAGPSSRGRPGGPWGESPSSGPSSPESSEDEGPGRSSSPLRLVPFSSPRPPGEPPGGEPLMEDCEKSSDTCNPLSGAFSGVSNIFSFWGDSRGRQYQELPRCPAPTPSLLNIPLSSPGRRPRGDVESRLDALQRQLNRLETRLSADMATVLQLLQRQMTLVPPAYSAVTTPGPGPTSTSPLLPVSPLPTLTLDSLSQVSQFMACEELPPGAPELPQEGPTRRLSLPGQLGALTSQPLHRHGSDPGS

SMILES	IC50 [1] [µM]	MIC (Staphylococcus aureus [2]) [µg/mL]	MIC [3] [µg/mL]	MIC50 (Neisseria gonorrhoeae) [µg/mL]	MIC90 (Neisseria gonorrhoeae) [µg/mL]	MIC (Streptococcus pyogenes) [µg/mL]	MIC (Staphylococcus aureus [4]) [µg/mL]	MIC [5] [µg/mL]	MIC (Streptococcus pneumoniae) [µg/mL]	ED50 (Staphylococcus aureus [6]) [mg/kg]	ED50 (Staphylococcus aureus [7]) [mg/kg]	IC50 [8] [µM]	IC50 (DNA gyrase) [µM]	Tmax [9] [min]
C[C@@H]1CN2c3c(cc4c(N5CCSC5=O)noc4c3F)CC3(C(=O)NC(=O)NC3=O)[C@H]2[C@H](C)O1	> 40	≤ 0.03	< 0.03	0.03 (≈ 0.0613 µM)	0.06 (≈ 0.123 µM)	< 0.03	< 0.03	< 0.03	≤ 0.03					
CC(=O)NC[C@H]1CN(c2ccc(N3CCOCC3)c(F)c2)C(=O)O1 [LINEZOLID]										4.83	4.53			
C[C@@H]1CN2c3c(cc4c(N5C[C@@H](C)SC5=O)noc4c3F)CC3(C(=O)NC(=O)NC3=O)[C@H]2[C@H](C)O1	> 40			0.03 (≈ 0.0596 µM)	0.125 (≈ 0.248 µM)	< 0.03	0.03 to 0.25 (≈ 0.0596 to 0.497 µM)	0.03 to 0.06 (≈ 0.0596 to 0.119 µM)	≤ 0.03			> 200	15.3	34.8
